16 compounds from ChEMBL document CHEMBL3425430, “α-Substituted 2-(3-fluoro-4-methylsulfonamidophenyl)acetamides as potent TRPV1 antagonists” (Bioorg Med Chem Lett, 2015) can be followed below.

SMILES strings stand for the structures.

For one experiment, the target named is T1, Transient receptor potential cation channel subfamily V member 1 (Homo sapiens, UniProt Q8NER1). The experiment in a line: Antagonist activity at human TRPV1 expressed in CHO cells assessed as inhibition of capsaicin-induced activation by FLIPR assay. In kind it is cell-based. As to conditions: cho; call rule not given here.
T1 sequence (Q8NER1 whole entry): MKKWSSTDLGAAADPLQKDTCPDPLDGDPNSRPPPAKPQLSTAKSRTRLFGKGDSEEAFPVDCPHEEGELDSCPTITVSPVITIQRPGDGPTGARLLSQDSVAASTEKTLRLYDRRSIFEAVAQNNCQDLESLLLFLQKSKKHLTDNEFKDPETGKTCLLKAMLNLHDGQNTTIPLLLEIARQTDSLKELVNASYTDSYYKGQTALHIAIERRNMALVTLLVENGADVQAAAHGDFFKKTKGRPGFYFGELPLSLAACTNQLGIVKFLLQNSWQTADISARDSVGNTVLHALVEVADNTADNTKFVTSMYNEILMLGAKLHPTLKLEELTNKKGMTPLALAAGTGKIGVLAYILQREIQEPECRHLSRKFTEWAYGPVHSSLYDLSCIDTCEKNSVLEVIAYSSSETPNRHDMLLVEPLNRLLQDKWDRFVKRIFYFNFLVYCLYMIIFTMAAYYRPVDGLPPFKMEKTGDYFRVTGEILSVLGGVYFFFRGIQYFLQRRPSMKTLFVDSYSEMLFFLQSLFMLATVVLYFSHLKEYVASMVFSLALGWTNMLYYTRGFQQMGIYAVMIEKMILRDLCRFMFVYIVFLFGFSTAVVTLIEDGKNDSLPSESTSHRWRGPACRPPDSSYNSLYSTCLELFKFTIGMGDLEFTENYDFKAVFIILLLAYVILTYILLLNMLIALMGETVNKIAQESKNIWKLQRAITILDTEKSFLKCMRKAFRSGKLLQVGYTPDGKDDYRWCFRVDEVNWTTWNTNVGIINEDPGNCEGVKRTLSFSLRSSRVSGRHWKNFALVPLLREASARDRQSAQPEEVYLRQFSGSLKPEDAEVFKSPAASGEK
In the case of `CS(=O)(=O)Nc1ccc(C(C(=O)NCc2ccc(C(F)(F)F)nc2SC2CCCCC2)C2CCCCC2)cc1F` (configuration not stated), the Ki (in general, a dissociation constant, usually derived from enzyme kinetics or from competition with a known ligand) is “Active”.

In the case of `Cc1ccccc1C(C(=O)NCc1ccc(C(F)(F)F)nc1SC1CCCCC1)c1ccc(NS(C)(=O)=O)c(F)c1` (configuration not stated), the inhibitory constant (Ki) result is “Active”.

On to `CS(=O)(=O)Nc1ccc(C(Cc2ccccc2)C(=O)NCc2ccc(C(F)(F)F)nc2SC2CCCCC2)cc1F` (configuration not stated), for which the Ki entry is recorded as “Active”.

With `CS(=O)(=O)Nc1ccc(C(Cc2ccc(F)cc2)C(=O)NCc2ccc(C(F)(F)F)nc2SC2CCCCC2)cc1F` (configuration not stated), the Ki entry was “Active”.

Consider `Cc1ccc(CC(C(=O)NCc2ccc(C(F)(F)F)nc2N2CCC(C)CC2)c2ccc(NS(C)(=O)=O)c(F)c2)cc1` (configuration not stated), for which the Ki entry was “Active”.

Regarding `CCC(C)(C(=O)NCc1ccc(C(F)(F)F)nc1SC1CCCCC1)c1ccc(NS(C)(=O)=O)c(F)c1` (configuration not stated), the Ki entry is “Active”.

For `CC1CCN(c2nc(C(F)(F)F)ccc2CNC(=O)C2(c3ccc(NS(C)(=O)=O)c(F)c3)CCCC2)CC1`, the Ki entry was “Active”.

As to `CS(=O)(=O)Nc1ccc(C2(C(=O)NCc3ccc(C(F)(F)F)nc3SC3CCCCC3)CCCC2)cc1F`, the Ki entry was “Active”.

The experiment is the same for the next values; noted with them: read-out: Ki.
Turning to `CS(=O)(=O)Nc1ccc(C(C(=O)NCc2ccc(C(F)(F)F)nc2SC2CCCCC2)c2cccc(F)c2)cc1F` (configuration not stated), the Ki amounted to 48.7 nM.

Regarding `CS(=O)(=O)Nc1ccc(C(C(=O)NCc2ccc(C(F)(F)F)nc2SC2CCCCC2)c2ccc(F)cc2)cc1F` (configuration not stated), the Ki is 37.6 nM.

Turning to `Cc1cccc(C(C(=O)NCc2ccc(C(F)(F)F)nc2SC2CCCCC2)c2ccc(NS(C)(=O)=O)c(F)c2)c1` (configuration not stated), the Ki amounted to 56.4 nM.

For the compound `Cc1ccc(C(C(=O)NCc2ccc(C(F)(F)F)nc2SC2CCCCC2)c2ccc(NS(C)(=O)=O)c(F)c2)cc1` (configuration not stated), the Ki turned out to be 7.5 nM.

Regarding `CC1CCN(c2nc(C(F)(F)F)ccc2CNC(=O)C(Cc2ccccc2)c2ccc(NS(C)(=O)=O)c(F)c2)CC1` (configuration not stated), the Ki came out at 65.9 nM.

For the compound `CC1CCN(c2nc(C(F)(F)F)ccc2CNC(=O)C(Cc2ccc(F)cc2)c2ccc(NS(C)(=O)=O)c(F)c2)CC1` (configuration not stated), the Ki came out at 49.3 nM.

Take `Cc1ccc(CC(C(=O)NCc2ccc(C(F)(F)F)nc2SC2CCCCC2)c2ccc(NS(C)(=O)=O)c(F)c2)cc1` (configuration not stated): the Ki was determined as 40.3 nM.

A further experiment has as its target T1, Transient receptor potential cation channel subfamily V member 1. The experiment in a line: Antagonist activity at human TRPV1 expressed in CHO cells assessed as inhibition of N-arachidonoyl dopamine-induced activation by FLIPR assay. In kind it is cell-based.
Conditions: not given
Take `Cc1cccc(C(C(=O)NCc2ccc(C(F)(F)F)nc2N2CCC(C)CC2)c2ccc(NS(C)(=O)=O)c(F)c2)c1` (configuration not stated): the Ki was 0.25 nM.

A further experiment has the same target. The experiment in a line: Antagonist activity at human TRPV1 expressed in CHO cells assessed as inhibition of 45 degC heat-induced activation by FLIPR assay. It counts as cell-based.
Conditions: not given
For the compound `Cc1cccc(C(C(=O)NCc2ccc(C(F)(F)F)nc2N2CCC(C)CC2)c2ccc(NS(C)(=O)=O)c(F)c2)c1` (configuration not stated), the IC50 (as a rule, the midpoint of a concentration-inhibition curve) was 36.2 nM.
